According to PubChem BioAssay AID1963434 (Molecular Pharmacology Branch, DTP, NCI, 2024):
“And” between values parts separate entries of the source, which are not always exact repeats. Equal values may be shown once.

System: 755483-174-R-J1-PDC complex spheroid growth, percent test/control
Experiment: Anticancer human tumor 755483-174-R-J1-PDC patient-derived rhabdomyosarcoma cell line growth inhibition [Asc]
Conditions: for viability, T/C: stronger effect = lower value
Protocol: Multicellular complex tumor spheroid response to apoptosis pathway targeting inhibitors Alrizomadlin, Pelcitoclax, and Dasminapant in combination with a variety of drugs and investigational agents in selected tumor cell lines
The MDM2 inhibitor alrizomadlin, the Bcl-2/Bcl-xL inhibitor pelcitoclax, and the IAPs inhibitor dasminapant were evaluated both individually and in combination with standard of care and investigational anticancer small molecules within a complex spheroid model of solid tumors. . Complex spheroids include a stromal component modeled by human endothelial cells (HUVEC) and fibroblasts modeled by human mesenchymal stem cells (MSCs). The concentration ranges selected for each drug and investigational agent were based upon clinically achievable concentrations if the clinical Cmax of the agent was known.
Compounds. The drugs and investigational agents: alrizomadlin (APG-115; NSC831270), pelcitoclax (APG-1252; NSC835773), dasminapant (APG-1387;NSC834197), TAK-243 (NSC785004), copanlisib (NSC809693), olaparib (NSC753686), talazoparib (NSC767125), cobimetinib (NSC 768068), eltanexor (KPT-8602, NSC 794443), abemaciclib (NSC 768073), sotorasib (NSC818433), adagrasib (NSC 831453), MRTX-1133 (NSC 836407), Iadademestat (ORY1001, NSC 806812), and RMC-4630 (NSC839698), were obtained from the NCI Developmental Therapeutics Program Chemical Repository. The FDA-approved anticancer drug set is available from the Developmental Therapeutics Program at https://dtp.cancer.gov/organization/dscb/obtaining/available plates.htm. […] The stock solutions were prepared in dimethyl sulfoxide (DMSO, Sigma-Aldrich, St. Louis, MO, cat. D2650) at 800-fold the tested concentration and stored at -70 degrees C prior to their use. All drugs and investigational agents were tested over a range starting from a high concentration at or near the clinical Cmax and decreasing in half-log increments. If the clinical Cmax for an agent had not been determined, the highest concentration tested was 10 microM.
The patient-derived cancer (PDC) cell lines include five colon adenocarcinomas: 186277-243-T-J2-PDC, 616215-338-R-J1-PDC, 439559-082-T-J2-PDC, 463943-066-T-J2-PDC, and 519858-162-T-J1-PDC; three pancreatic carcinomas: 323965-272-R-J2-PDC, 521955-158-R6-J3-PDC, and 521955-158-R2-J5-PDC; two uterine sarcomas: 327498-152-R-J2-PDC and 993429-296-R-J1-PDC; two rhabdomyosarcomas: 755483-174-R-J1-PDC and 772245-204-R-J1-PDC; two soft tissue sarcomas: 126254-015-R-J1-PDC and 494315-158-R-J1-PDC; two malignant fibrous histiocytomas: 317291-083-R-J1-PDC and 596521-263-R-J1-PDC; two breast carcinomas: 171881-019-R-J1-PDC and 885512-296-R-J2-PDC; and one ovarian carcinoma: 6556581-035-R-J-PDC were obtained from the NCI PDMR, (https://pdmr.cancer.gov). The established cell lines HSSY-2 synovial sarcoma (RRID:CVCL 8719), SYO-1 synovial sarcoma (RRID:CVCL_7146), MPNST malignant peripheral neural sheath tumor were obtained from the Sloan Kettering Institute. The following established cell lines were purchased from the American Type Culture Collection (ATCC, Manassas, VA), Sor the received from the NCI repository:, PANC-1 pancreatic carcinoma (CRL-1469, RRID:CVCL_0480), OVCAR-5 ovarian carcinoma (RRID:CVCL_1628), OVCAR-8 ovarian carcinoma (RRID:CVCL_1629), , MCF-7 breast carcinoma (CRL-12584, RRID:CVCL_0031), MDA-MB-231 breast carcinoma (CRL-12532, RRID:CVCL_0062), NCI-H1876 small cell lung carcinoma (CRL-5902, RRID:CVCL_1503), NCI-H510A small cell lung carcinoma (HTB-184, RRID:CVCL_1565), NCI-H1417 (CRL-5869, RRID:CVCL_1469), and NCI-H196 small cell lung carcinoma (CRL-5823, RRID:CVCL_1509). Dr. Peter Houghton (Greehey Children's Cancer Research Institute, University of Texas Health Science Center, San Antonio, TX) provided Rh-18 rhabdomyosarcoma (RRID:CVCL_1659). Pooled donor human umbilical vein endothelial cells (HUVEC, Lonza, cat. CC-2519) and human mesenchymal stem cells (hMSC, Lonza, cat. PT-2501) were purchased from Lonza (Walkersville, MD).
Cell Culture. […]
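Also: spheroids exposed to compounds for seven days before readout.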

Row | Structure (SMILES) | viability, T/C (compound 0.0316 µM) | viability, T/C (compound 0.1 µM) | viability, T/C (compound 0.316 µM) | viability, T/C (compound 1 µM) | viability, T/C (compound 3.16 µM) | viability, T/C (compound 10 µM) | IC50 (curve of compound) | viability, T/C (compound 0.00949 µM) | IC50 (compound alone, run of 09/27/2022) [µM] | viability, T/C (compound 0.00316 µM) | viability, T/C (compound 0.01 µM)
1 | C#Cc1c(F)ccc2cc(O)cc(-c3ncc4c(N5CC6CCC(C5)N6)nc(OCC56CCCN5CC(F)C6)nc4c3F)c12 (configuration not stated) | 97.7% and 125% and 101% | 114% and 91.6% and 119% | 92.6% and 113% and 90.3% | 117% and 100% and 127% | 85.7% and 76.6% and 92.3% | 31.7% and 34.9% and 58.8% | 6.77 µM and 6.63 µM and > 10 µM | – | – | – | –
2 | C=C(F)C(=O)N1CCN(c2nc(OCC3CCCN3C)nc3c2CCN(c2cccc4cccc(Cl)c24)C3)CC1CC#N (configuration not stated) | 95.7% and 76.6% and 114% | 91% and 57% and 109% | 95% and 99.3% and 78.9% | 80.1% and 74.6% and 88.8% | 21.4% and 23.7% and 19.3% | 0.14% and 0.16% and 0.18% | 1.81 µM and 1.76 µM and 1.88 µM | – | – | – | –
3 | C=CC(=O)N1CCN(c2nc(=O)n(-c3c(C)ccnc3C(C)C)c3nc(-c4c(O)cccc4F)c(F)cc23)C(C)C1 (configuration not stated) | 99.7% and 81.3% and 102% | 98.4% and 72.6% and 109% | 115% and 63% and 100% | 94.8% and 72.7% and 121% | 117% and 78.5% and 88.8% | 74.8% and 69.6% and 85.6% | > 10 µM | – | – | – | –
4 | CCN1C(C(=O)NC23CCC(C(=O)O)(CC2)CC3)C(c2cccc(Cl)c2F)C2(C(=O)Nc3cc(Cl)ccc32)C12CCCCC2 (configuration not stated) | – | – | – | – | – | – | > 3 µM | 92.3% and 75.3% | > 3 | – | –
5 | CCN1CCN(Cc2ccc(Nc3ncc(F)c(-c4cc(F)c5nc(C)n(C(C)C)c5c4)n3)nc2)CC1 | 119% and 93.6% and 74.1% | 120% and 83.7% and 118% | 115% and 99.3% and 99.2% | 113% and 132% and 99% | – | – | > 1 µM | – | – | 112% and 99% and 77.5% | 85.6% and 83.7% and 100%
6 | CNC(C)C(=O)NC1CN(S(=O)(=O)c2cccc(S(=O)(=O)N3CCC4CCC(C(=O)NC(c5ccccc5)c5ccccc5)N4C(=O)C(NC(=O)C(C)NC)C3)c2)CCC2CCC(C(=O)NC(c3ccccc3)c3ccccc3)N2C1=O (configuration not stated) | – | 37.5% [middle of 15 runs] | – | – | – | – | < 0.00316 µM and 0.023 µM | – | – | 48.1% and 88.5% | –
7 | COc1c(OCCCN2CCOCC2)ccc2c3n(c(=NC(=O)c4cnc(N)nc4)nc12)CCN3 | 48.4% and 58.9% and 88.5% | 32.9% and 32.1% and 51.3% | 11.3% and 12% and 19.7% | 5.83% and 6.96% and 8.42% | – | – | 0.0313 µM and 0.0462 µM and 0.104 µM | – | – | 81.5% and 75.7% and 125% | 68.4% and 71.7% and 105%
8 | Cc1c(S(C)(=O)=O)c(-c2cc(F)cc(N3CCN(c4ccc(NS(=O)(=O)c5ccc(NC(CCN6CCC(C(=O)OCCCP(=O)(O)O)CC6)CSc6ccccc6)c(S(=O)(=O)C(F)(F)F)c5)cc4)CC3)c2)c(-c2ccc(Cl)cc2)n1C(C)C (configuration not stated) | – | – | – | – | – | 41.7% [middle of 14 runs] | – | – | – | – | –
